Measured values taken from patent US7220772B2, “Pyrazole derivatives” (Pfizer, Inc., priority 2003, dated 2007).

How the values were obtained:
[1] = biological target: T1, HIV-1 reverse transcriptase (Human immunodeficiency virus type 1 group M subtype B, UniProt P04585); test: Inhibition of HIV-1 Reverse Transcriptase Enzyme; assay type: biochemical; conditions: purified recombinant HIV-1 RT expressed in Escherichia Coli; [3H]-SPA or [3H]-flashplate enzyme assay; 5% final DMSO
T1 construct: purified recombinant HIV-1 reverse transcriptase (RT, EC, 2.7.7.49) obtained by expression in Escherichia Coli; made in house; host or cells: Escherichia coli
Description: The activity of the compounds of the invention as reverse transcriptase inhibitors may be measured using the following assay.
Inhibition of HIV-1 Reverse Transcriptase Enzyme
Using purified recombinant HIV-1 reverse transcriptase (RT, EC, 2.7.7.49) obtained by expression in Escherichia Coli, a 96-well plate assay system is established for assaying a large number of samples using either the Poly(rA)-oligo(dT) Reverse Transcriptase [3H]-SPA enzyme assay system (Amersham NK9020) or the [3H]-flashplate enzyme assay system (NEN-SMP 103) and following the manufacturer's recommendations. The compounds are dissolved in 100% DMSO and diluted with the appropriate buffer to a 5% final DMSO concentration. The inhibitory activity is expressed in percent inhibition relative to DMSO control.

Q: With `CCc1n[nH]c(CCOc2ccc(SC)cc2)c1Oc1cc(C#N)cc(C#N)c1` [Example 1, 5-[(3-Ethyl-5-{2-[4-(methylsulfanyl)phenoxy]ethyl}-1H-pyrazol-4-yl)oxy]isophthalonitrile] as the molecule, how does the IC50 [1] read?
A: 2 nM

Q: Which IC50 [1] does the source give for `CCc1n[nH]c(CCOc2ccc(S(C)(=O)=O)cc2)c1Oc1cc(C#N)cc(C#N)c1` [Example 3, 5-[(3-Ethyl-5-{2-[4-(methylsulfonyl)phenoxy]ethyl}-1H-pyrazol-4-yl)oxy]isophthalonitrile] here?
A: 45 nM

Q: And the melting point?
A: 88 to 90 °C
